Experimental findings from patent US11590139B2, “Substituted aminopurine compounds, compositions thereof, and methods of treatment therewith” (Signal Pharmaceuticals, LLC, priority 2014, dated 2023) are described below.

Each structure is given as a SMILES string.

The subject of one assay is Lox-IMVI melanoma cell line. Description: Lox-IMVI anti-proliferative assay (growth inhibition, Cell Titer-Glo). The assay is classed as cell-based, human. As to conditions: Homo sapiens; IC50 activity level in the cell-based Lox-IMVI anti-proliferative assay; read-out: Activity. Summed up: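 Growth inhibition is assessed over 72 h in RPMI + 10% FBS at 0.2% DMSO, with ATP-based luminescence used as the viability measure. IC50 is fitted from normalized dose-response data.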
For orientation: Cellular ATP, detected with luciferase, serves as a proxy for viable cell number.
As to `NC(=O)[C@H]1CC[C@@H](n2c(Nc3c(F)cc(F)cc3Cl)nc3cnc(NC4COCC4O)nc32)CC1` (some centres unmarked) [Example 179, (1s,4s)-4-(8-(2-chloro-4,6-difluorophenylamino)-2-(4-hydroxytetrahydrofuran-3-ylamino)-9H-purin-9-yl)cyclohexanecarboxamide], the IC50 is above 1 µM.
In the case of `NC(=O)[C@H]1CC[C@@H](n2c(Nc3c(F)cc(C(F)(F)F)cc3Cl)nc3cnc(NC4CCOCC4)nc32)CC1` [Example 398, (1s,4s)-4-(8-(2-chloro-6-fluoro-4-(trifluoromethyl)phenylamino)-2-(tetrahydro-2H-pyran-4-ylamino)-9H-purin-9-yl)cyclohexanecarboxamide], the IC50 lay in the range of 0.5 to 1 µM.
Same read-out and setting: with `NC(=O)[C@H]1CC[C@@H](n2c(Nc3c(Cl)cc(Cl)cc3Cl)nc3cnc(N[C@H]4CC[C@H](O)CC4)nc32)CC1` [Example 78, (1s,4s)-4-(2-((1r,4r)-4-hydroxycyclohexylamino)-8-(2,4,6-trichlorophenylamino)-9H-purin-9-yl)cyclohexanecarboxamide] the figure was above 1 µM.
The same measure, in the same setting: with `NC(=O)[C@H]1CC[C@@H](n2c(Nc3c(F)ccc(F)c3F)nc3cnc(NC4CCC(F)(F)CC4)nc32)CC1` [Example 239, (1s,4s)-4-(2-(4,4-difluorocyclohexylamino)-8-(2,3,6-trifluorophenylamino)-9H-purin-9-yl)cyclohexanecarboxamide] the figure was 0.5 to 1 µM; with `NC(=O)[C@H]1CC[C@@H](n2c(Nc3c(F)cc(Cl)cc3F)nc3cnc(N[C@@H]4CCOC4)nc32)CC1` [Example 221, (1S,4s)-4-(8-(4-chloro-2,6-difluorophenylamino)-2-((R)-tetrahydrofuran-3-ylamino)-9H-purin-9-yl)cyclohexanecarboxamide], 0.5 to 1 µM.
The same measure, in the same setting: with `CC1(C)CC[C@@H](Nc2ncc3nc(Nc4c(F)cccc4F)n([C@H]4CC[C@@H](C(N)=O)CC4)c3n2)C[C@H]1O` [Example 382, (1S,4s)-4-(8-(2,6-difluorophenylamino)-2-((1R,3R)-3-hydroxy-4,4-dimethylcyclohexylamino)-9H-purin-9-yl)cyclohexanecarboxamide] the figure was above 1 µM.
Turning to `COC[C@H](C)Nc1ncc2nc(Nc3c(Cl)cc(Cl)cc3Cl)n([C@H]3CC[C@@H](C(N)=O)CC3)c2n1` [Example 142, (1R,4s)-4-(2-((S)-1-methoxypropan-2-ylamino)-8-(2,4,6-trichlorophenylamino)-9H-purin-9-yl)cyclohexanecarboxamide], the IC50 is above 1 µM.
Same read-out and setting: for `CC(C)Nc1ncc2nc(Nc3ccc(Cl)cc3Cl)n([C@H]3CC[C@@H](C(N)=O)CC3)c2n1` [Example 96, (1s,4s)-4-(8-(2,4-dichlorophenylamino)-2-(isopropylamino)-9H-purin-9-yl)cyclohexanecarboxamide] the value was above 1 µM; for `NC(=O)[C@H]1CC[C@@H](n2c(Nc3c(Cl)cccc3Cl)nc3cnc(NC4COCC4O)nc32)CC1` (some centres unmarked) [Example 180, (1s,4s)-4-(8-(2,6-dichlorophenylamino)-2-(4-hydroxytetrahydrofuran-3-ylamino)-9H-purin-9-yl)cyclohexanecarboxamide], above 1 µM; for `CC1(C)CC[C@@H](Nc2ncc3nc(Nc4c(F)cc(Cl)cc4F)n([C@H]4CC[C@@H](C(N)=O)CC4)c3n2)C[C@H]1O` [Example 386, (1S,4s)-4-(8-(4-chloro-2,6-difluorophenylamino)-2-((1R,3R)-3-hydroxy-4,4-dimethylcyclohexylamino)-9H-purin-9-yl)cyclohexanecarboxamide], above 1 µM.
Still for that read-out and setting: for `CC(C)(C)OC(=O)N1CCC[C@@H](Nc2ncc3nc(Nc4c(F)cc(F)cc4F)n([C@H]4CC[C@@H](C(N)=O)CC4)c3n2)C1` [Example 158, (R)-tert-butyl 3-(9-((1s,4S)-4-carbamoylcyclohexyl)-8-(2,4,6-trifluorophenylamino)-9H-purin-2-ylamino)piperidine-1-carboxylate] the value was above 1 µM.
On the same count and under the same terms, with `NC(=O)[C@H]1CC[C@@H](n2c(Nc3ccc(Cl)c(F)c3F)nc3cnc(N[C@@H]4CC[C@@H](O)C4)nc32)CC1` [Example 216, (1S,4s)-4-(8-(4-chloro-2,3-difluorophenylamino)-2-((1R,3R)-3-hydroxycyclopentylamino)-9H-purin-9-yl)cyclohexanecarboxamide] the figure was above 1 µM.

Staying with this assay, now noted: Homo sapiens; Lox-IMVI anti-proliferative assay, IC50 activity level; read-out: Activity.
`C[C@@H](CO)Nc1ncc2nc(Nc3c(Cl)cc(Cl)cc3Cl)n([C@H]3CC[C@](C)(C(N)=O)CC3)c2n1` [Example 481, (1S,4r)-4-(2-((S)-1-hydroxypropan-2-ylamino)-8-(2,4,6-trichlorophenylamino)-9H-purin-9-yl)-1-methylcyclohexanecarboxamide]: the IC50 was above 1 µM.
On to `NC(=O)[C@H]1CC[C@@H](n2c(Nc3c(Cl)cc(Cl)cc3Cl)nc3cnc(N[C@@H]4CCCC[C@H]4O)nc32)CC1` [Example 468, (1S,4s)-4-(2-((1R,2R)-2-hydroxycyclohexylamino)-8-(2,4,6-trichlorophenylamino)-9H-purin-9-yl)cyclohexanecarboxamide], for which the IC50 was above 1 µM.
Same read-out and setting: with `NC(=O)[C@H]1CC[C@@H](n2c(Nc3c(F)cc(F)cc3F)nc3cnc(N[C@@H]4CCCC[C@H](O)C4)nc32)CC1` [Example 434, (1S,4s)-4-(2-((1R,3S)-3-hydroxycycloheptylamino)-8-(2,4,6-trifluorophenylamino)-9H-purin-9-yl)cyclohexanecarboxamide] the figure was above 1 µM; with `NC(=O)[C@H]1CC[C@@H](n2c(Nc3c(Cl)cc(C(F)(F)F)cc3Cl)nc3cnc(NC4CC5(COC5)C4)nc32)CC1` [Example 570, (1s,4s)-4-(2-(2-oxaspiro[3.3]heptan-6-ylamino)-8-(2,6-dichloro-4-(trifluoromethyl)phenylamino)-9H-purin-9-yl)cyclohexanecarboxamide], above 1 µM.

The same assay, now with this note: Homo sapiens; Lox-IMVI melanoma cell line, anti-proliferative assay; read-out: Activity (IC50 activity level).
As for `NC(=O)[C@H]1CC[C@@H](n2c(Nc3c(Cl)cc(Br)cc3Cl)nc3cnc(NC4CCC(F)(F)CC4)nc32)CC1` [Example 691, (1s,4s)-4-(8-(4-bromo-2,6-dichlorophenylamino)-2-(4,4-difluorocyclohexylamino)-9H-purin-9-yl)cyclohexanecarboxamide], the IC50 fell in the range of 0.5 to 1 µM.
On the same count and under the same terms, with `N#Cc1cc(Cl)c(Nc2nc3cnc(N[C@@H]4CCC(O)C4)nc3n2[C@H]2CC[C@@H](C(N)=O)CC2)c(Cl)c1` (stereo partly drawn) [Example 683, (1S,4s)-4-(8-(2,6-dichloro-4-cyanophenylamino)-2-((1R,3R)-3-hydroxycyclopentylamino)-9H-purin-9-yl)cyclohexanecarboxamide] the figure was below 0.25 µM.
The same measure, in the same setting: for `NC(=O)[C@H]1CC[C@@H](n2c(Nc3c(Cl)cc(Cl)cc3Cl)nc3cnc(N[C@@H]4CCCN(Cc5ccccc5)C4)nc32)CC1` [Example 752, (1S,4s)-4-(2-((R)-1-benzylpiperidin-3-ylamino)-8-(2,4,6-trichlorophenylamino)-9H-purin-9-yl)cyclohexanecarboxamide] the value was above 1 µM; for `C[C@@H](CO)Nc1ncc2nc(Nc3ccc(C#N)c(Cl)c3Cl)n([C@H]3CC[C@@H](C(N)=O)CC3)c2n1` [Example 694, (1R,4s)-4-(8-(2,3-dichloro-4-cyanophenylamino)-2-((S)-1-hydroxypropan-2-ylamino)-9H-purin-9-yl)cyclohexanecarboxamide], above 1 µM.
